Reference: patent publication USRE49735E1 (BRISTOL-MYERS SQUIBB COMPANY, priority 2010, dated 2023)
Values joined by “and” are separate entries in the source; they are usually repeats but may differ in a detail not shown here. Equal values may be shown once.

These compounds were tested against human mGluR5A (Homo sapiens, UniProt P41594) (assay: mGluR5 FLIPR Assay). Settings: positive modulator activity; HEK293 (ZF) cells with human mGluR5A and rat GLAST; Ca++ response to ~EC10 glutamate.
Format: cell-based

Sequence of human mGluR5A (P41594 21-1180 isoform P41594-2): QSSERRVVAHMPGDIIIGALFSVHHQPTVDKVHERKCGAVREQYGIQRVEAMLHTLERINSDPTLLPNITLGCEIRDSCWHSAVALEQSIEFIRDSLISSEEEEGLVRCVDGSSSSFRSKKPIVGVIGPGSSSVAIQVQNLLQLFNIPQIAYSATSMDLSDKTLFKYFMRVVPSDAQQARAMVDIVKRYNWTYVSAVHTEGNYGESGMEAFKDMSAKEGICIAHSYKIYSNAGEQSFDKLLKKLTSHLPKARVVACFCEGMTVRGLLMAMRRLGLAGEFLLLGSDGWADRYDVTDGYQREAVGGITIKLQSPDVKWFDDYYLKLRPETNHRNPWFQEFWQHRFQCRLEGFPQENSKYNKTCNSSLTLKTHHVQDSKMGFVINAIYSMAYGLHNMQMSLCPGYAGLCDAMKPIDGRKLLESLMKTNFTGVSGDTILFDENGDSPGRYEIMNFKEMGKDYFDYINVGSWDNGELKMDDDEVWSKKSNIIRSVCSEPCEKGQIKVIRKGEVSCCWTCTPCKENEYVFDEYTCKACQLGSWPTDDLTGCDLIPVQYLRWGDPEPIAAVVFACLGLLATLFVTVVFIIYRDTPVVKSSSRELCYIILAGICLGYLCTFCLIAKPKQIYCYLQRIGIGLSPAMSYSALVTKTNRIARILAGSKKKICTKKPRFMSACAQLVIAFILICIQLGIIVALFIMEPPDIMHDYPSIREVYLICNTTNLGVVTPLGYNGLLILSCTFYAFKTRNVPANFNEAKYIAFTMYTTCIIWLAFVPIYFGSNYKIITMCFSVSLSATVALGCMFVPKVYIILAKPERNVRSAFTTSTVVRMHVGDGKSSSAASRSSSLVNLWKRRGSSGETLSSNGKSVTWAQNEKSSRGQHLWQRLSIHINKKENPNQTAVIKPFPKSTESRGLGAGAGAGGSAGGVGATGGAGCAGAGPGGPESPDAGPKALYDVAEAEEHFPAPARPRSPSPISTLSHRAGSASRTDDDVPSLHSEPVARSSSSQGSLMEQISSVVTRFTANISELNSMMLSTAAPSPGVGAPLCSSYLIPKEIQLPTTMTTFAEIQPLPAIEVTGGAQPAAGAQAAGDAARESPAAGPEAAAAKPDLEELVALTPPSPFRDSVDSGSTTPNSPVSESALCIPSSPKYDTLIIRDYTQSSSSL

Structure (SMILES) | EC50
COc1cccc([C@H]2OC(=O)N[C@@H]2c2cccc(C#Cc3ccc(C(C)=O)cc3)c2)c1 [Example 261] | > 1000 nM
COc1cccc([C@H]2OC(=O)N[C@@H]2c2cccc(C#Cc3ccc(Cl)cc3)c2)c1 [Example 263] | > 1000 nM
COc1cccc([C@H]2OC(=O)N[C@@H]2c2cccc(C#Cc3ccc(OC(F)(F)F)cc3)c2)c1 [Example 268] | > 1000 nM
COc1cccc([C@H]2OC(=O)N[C@@H]2c2cccc(C#Cc3cccc(OC(F)(F)F)c3)c2)c1 [Example 269] | > 1000 nM
O=C1N[C@H](c2nccc(C#Cc3ccccc3)n2)[C@@H](c2cccc(F)c2)O1 [Example 273] | > 3000 nM
O=C1N[C@@H](c2nccc(C#Cc3ccccc3)n2)[C@H](c2cccc(F)c2)O1 [Example 274] | > 1000 nM
O=C1N[C@@H](c2ccnc(C#Cc3ccccc3)n2)[C@H](c2cccc(F)c2)O1 [Example 276] | 100 to 1000 nM and 468 nM
O=C1N[C@H](c2cncc(C#Cc3ccccc3)c2)[C@@H](c2cccc(F)c2F)O1 [Example 277] | < 100 nM and 21.5 nM
O=C1N[C@H](c2cncc(C#Cc3ccccc3)c2)[C@@H](c2c(F)cccc2F)O1 [Example 278] | > 1000 nM
O=C1N[C@H](c2cncc(C#Cc3cccc(Cl)c3)c2)[C@@H](c2cccc(F)c2F)O1 [Example 280] | > 1000 nM
O=C1N[C@H](c2cncc(C#Cc3cccc(Cl)c3)c2)[C@@H](c2c(F)cccc2F)O1 [Example 281] | > 1000 nM
O=C1N[C@H](c2cncc(C#Cc3cccc(F)c3)c2)[C@@H](c2cccc(F)c2F)O1 [Example 285] | 100 to 1000 nM
O=C1N[C@H](c2cncc(C#Cc3ccccc3Cl)c2)[C@@H](c2cccc(F)c2F)O1 [Example 287] | 100 to 1000 nM
C[C@@]1(c2cc(F)ccc2F)OC(=O)N[C@H]1c1cncc(C#Cc2ccccc2)c1 [Example 288] | 100 to 1000 nM
C[C@@]1(c2cc(F)ccc2F)OC(=O)N[C@@H]1c1cncc(C#Cc2ccccc2)c1 [Example 290] | > 1000 nM
C[C@]1(c2cc(F)ccc2F)OC(=O)N[C@H]1c1cncc(C#Cc2ccccc2)c1 [Example 291] | 100 to 1000 nM
O=C1N[C@H](c2cncc(C#Cc3ccccc3)c2)[C@@H](c2cc(F)cc(F)c2F)O1 [Example 293] | > 1000 nM

Structure (SMILES) | EC50
O=C1N[C@H](c2cncc(C#Cc3ccccc3)c2)[C@@H](c2ccc(F)c(F)c2F)O1 [Example 294] | < 100 nM and 2.7 nM
O=C1N[C@H](c2cncc(C#Cc3cnccn3)c2)[C@@H](c2c(F)cc(F)cc2F)O1 [Example 295] | > 1000 nM
COc1ncc(C#Cc2ccccc2)cc1[C@H]1NC(=O)O[C@@H]1c1cc(F)ccc1F [Example 303, (4R,5R)-5-(2,5-Difluorophenyl)-4-(2-methoxy-5-(phenylethynyl)pyridin-3-yl)oxazolidin-2-one] | > 1000 nM
O=C1N[C@@H](c2cncc(C#Cc3ccccc3)c2)[C@H](c2ncco2)O1 [Example 338, (4S,5R)-5-(oxazol-2-yl)-4-(5-(phenylethynyl)pyridin-3-yl)oxazolidin-2-one] | > 1000 nM
O=C1N[C@H](c2cncc(C#Cc3ccccc3)c2)[C@@H](c2ncco2)O1 [Example 339, (4R,5S)-5-(oxazol-2-yl)-4-(5-(phenylethynyl)pyridin-3-yl)oxazolidin-2-one] | > 1000 nM
Cn1nccc1[C@@H]1OC(=O)N[C@H]1c1cncc(C#Cc2ccccc2)c1 [Example 341, (4S,5R)-5-(1-methyl-1H-pyrazol-5-yl)-4-(5-(phenylethynyl)pyridin-3-yl)oxazolidin-2-one] | > 1000 nM
Cc1ccc(C#Cc2cncc([C@H]3NC(=O)O[C@@H]3c3cc(F)ccc3F)c2)cc1 [Example 381, (4R,5R)-5-(2,5-Difluorophenyl)-4-(5-(p-tolylethynyl)pyridin-3-yl)oxazolidin-2-one] | 100 to 1000 nM
COc1ccc(C#Cc2cncc([C@H]3NC(=O)O[C@@H]3c3cc(F)ccc3F)c2)cc1 [Example 382, (4R,5R)-5-(2,5-difluorophenyl)-4-(5-((4-methoxyphenyl)ethynyl)pyridin-3-yl)oxazolidin-2-one] | 100 to 1000 nM and 537 nM
O=C1N[C@H](c2cncc(C#Cc3ccc(Cl)c(Cl)c3)c2)[C@@H](c2cc(F)ccc2F)O1 [Example 383, (4R,5R)-4-(5-((3,4-dichlorophenyl)ethynyl)pyridin-3-y1)-5-(2,5-difluorophenyl)oxazolidin-2-one] | > 1000 nM
CC(C)(C)c1ccc(C#Cc2cncc([C@H]3NC(=O)O[C@@H]3c3cc(F)ccc3F)c2)cc1 [Example 384, (4R,5R)-4-(5-((4-tert-butylphenyl)ethynyl)pyridin-3-y1)-5-(2,5-difluorophenyl)oxazolidin-2-one] | > 1000 nM
O=C1N[C@H](c2cncc(C#Cc3cccc(Cl)c3)c2)[C@@H](c2cc(F)ccc2F)O1 [Example 385, (4R,5R)-4-(5-((3-chlorophenyl)ethynyl)pyridin-3-yl)-5-(2,5-difluorophenyl)oxazolidin-2-one] | > 1000 nM
O=C1N[C@H](c2cncc(C#Cc3cccc(C(F)(F)F)c3)c2)[C@@H](c2cc(F)ccc2F)O1 [Example 386, (4R,5R)-5-(2,5-difluorophenyl)-4-(5-((3-(trifluoromethyl)phenyl)ethynyl)pyridin-3-yl)oxazolidin-2-one] | > 1000 nM
Cc1cccc(C#Cc2cncc([C@H]3NC(=O)O[C@@H]3c3cc(F)ccc3F)c2)c1 [Example 387, (4R,5R)-5-(2,5-difluorophenyl)-4-(5-(m-tolylethynyl)pyridin-3-yl)oxazolidin-2-one] | > 1000 nM
O=C1N[C@H](c2cncc(C#Cc3ccc(Cl)cc3)c2)[C@@H](c2cc(F)ccc2F)O1 [Example 388, (4R,5R)-4-(5-((4-chlorophenyl)ethynyl)pyridin-3-y1)-5-(2,5-difluorophenyl)oxazolidin-2-one] | 100 to 1000 nM
O=C1N[C@H](c2cncc(C#Cc3cc(Cl)cc(Cl)c3)c2)[C@@H](c2cc(F)ccc2F)O1 [Example 389, (4R,5R)-4-(5-((3,5-Dichlorophenyl)ethynyl)pyridin-3-yl)-5-(2,5-difluorophenyl)oxazolidin-2-one] | > 1000 nM
Cc1ccccc1C#Cc1cncc([C@H]2NC(=O)O[C@@H]2c2cc(F)ccc2F)c1 [Example 390, (4R,5R)-5-(2,5-difluorophenyl)-4-(5-(o-tolylethynyl)pyridin-3-yl)oxazolidin-2-one] | 100 to 1000 nM

Continued, values first:

EC50 | Structure (SMILES)
100 to 1000 nM | COc1cccc([C@H]2OC(=O)N[C@@H]2c2cccc(C#Cc3cccc(Cl)c3)c2)c1 [Example 262]
100 to 1000 nM | COc1cccc([C@H]2OC(=O)N[C@@H]2c2cccc(C#Cc3ccc(C#N)cc3)c2)c1 [Example 264]
100 to 1000 nM | COc1cccc([C@H]2OC(=O)N[C@@H]2c2cccc(C#Cc3ccccc3N)c2)c1 [Example 265]
100 to 1000 nM | COC(=O)c1ccc(C#Cc2cccc([C@H]3NC(=O)O[C@@H]3c3cccc(OC)c3)c2)cc1 [Example 266]
100 to 1000 nM | COC(=O)c1cccc(C#Cc2cccc([C@H]3NC(=O)O[C@@H]3c3cccc(OC)c3)c2)c1 [Example 267]
< 100 nM | O=C1N[C@H](c2ccnc(C#Cc3ccccc3)n2)[C@@H](c2cccc(F)c2)O1 [Example 275]
< 100 nM | O=C1N[C@H](c2cncc(C#Cc3ccc(F)cc3)c2)[C@@H](c2cc(F)ccc2F)O1 [Example 279]
< 100 nM | O=C1N[C@H](c2cncc(C#Cc3ccccc3F)c2)[C@@H](c2cc(F)ccc2F)O1 [Example 282]
< 100 nM | O=C1N[C@H](c2cncc(C#Cc3cccc(F)c3)c2)[C@@H](c2cc(F)ccc2F)O1 [Example 283]
< 100 nM | O=C1N[C@H](c2cncc(C#Cc3ccccc3F)c2)[C@@H](c2cccc(F)c2F)O1 [Example 284]
< 100 nM | O=C1N[C@H](c2cncc(C#Cc3ccc(F)cc3)c2)[C@@H](c2cccc(F)c2F)O1 [Example 286]
< 100 nM | C[C@]1(c2cc(F)ccc2F)OC(=O)N[C@@H]1c1cncc(C#Cc2ccccc2)c1 [Example 289]
< 100 nM | O=C1N[C@H](c2cncc(C#Cc3ccccc3)c2)[C@@H](c2c(F)cc(F)cc2F)O1 [Example 292]
< 100 nM | O=C1N[C@H](c2cncc(C#Cc3cnccn3)c2)[C@@H](c2ccc(F)c(F)c2F)O1 [Example 296]
< 100 nM | O=C1N[C@H](c2cc(C#Cc3ccccc3)cnc2F)[C@@H](c2cccc(F)c2)O1 [Example 299, (4R,5R)-4-(2-Fluoro-5-(phenylethynyl)pyridin-3-yl)-5-(3-fluorophenyl)oxazolidin-2-one]
< 100 nM | COc1ncc(C#Cc2ccccc2)cc1[C@H]1NC(=O)O[C@@H]1c1cccc(F)c1 [Example 300, (4R,5R)-5-(3-Fluorophenyl)-4-(2-methoxy-5-(phenylethynyl)pyridin-3-yl)oxazolidin-2-one]
< 100 nM | O=C1N[C@H](c2cc(C#Cc3ccccc3)ncc2F)[C@@H](c2cc(F)ccc2F)O1 [Example 301, (4R,5R)-5-(2,5-Difluorophenyl)-4-(5-fluoro-2-(phenylethynyl)pyridin-4-yl)oxazolidin-2-one]
< 100 nM | O=C1N[C@H](c2cc(C#Cc3ccccc3)cnc2F)[C@@H](c2cc(F)ccc2F)O1 [Example 302]
< 100 nM | O=C1N[C@H](c2cc(C#Cc3ccccc3)ncc2F)[C@@H](c2ccccc2F)O1 [Example 304, (4R,5R)-4-(5-Fluoro-2-(phenylethynyl)pyridin-4-yl)-5-(2-fluorophenyl)oxazolidin-2-one]
< 100 nM | Cn1nccc1[C@H]1OC(=O)N[C@@H]1c1cncc(C#Cc2ccccc2)c1 [Example 342, (4R,5S)-5-(1-methyl-1H-pyrazol-5-yl)-4-(5-(phenylethynyl)pyridin-3-yl)oxazolidin-2-one]
< 100 nM | N#Cc1ccc([C@H]2OC(=O)N[C@@H]2c2cncc(C#Cc3ccccc3)c2)cc1 [Example 365, 4-((4R,5R)-2-Oxo-4-(5-(phenylethynyl)pyridin-3-yl)oxazolidin-5-yl)benzonitrile]
< 100 nM | O=C1NC(c2cccc(C#Cc3ccccc3)c2)C(c2cccc(O)c2)O1 [Example 380, (4R,5R)-5-(3-Hydroxyphenyl)-4-(3-phenylethynyl)phenyl)oxazolidin-2-one]
